We go through two molecules from ChEMBL document CHEMBL3774389, “C-3 benzoic acid derivatives of C-3 deoxybetulinic acid and deoxybetulin as HIV-1 maturation inhibitors” (Bioorg Med Chem, 2016).

Structures are written as SMILES.

Data set [1] can be described thus: Half life in human liver microsomes at 0.5 uM by LC-MS/MS analysis in presence of NADPH. It is filed as ADME. A general note: Liver microsomes are a subcellular fraction often used to study metabolism.
In data set [2] the test system is Human immunodeficiency virus 1. Description: Antiviral activity against wild type HIV1 NLRepRlucP373S infected in human MT2 cells after 4 to 5 days in presence of 27 mg/ml HSA by luciferase report gene based multiple cycle drug susceptibility assay. Conditions: Human immunodeficiency virus 1, NLRepRlucP373S. Format: functional, organism-based.
Data set [3] is described as follows: Oral bioavailability in rat at 5 mg/kg by LC-MS/MS. It is filed as ADME, organism-based. Conditions: in vivo.
Data set [4] in a line: Cytotoxicity against human MT2 cells assessed as cell viability by redox dye assay. It is filed as cell-based.
Data set [5] is described as follows: AUC(0 to 6 hrs) in rat at 5 mg/kg, po by LC-MS/MS. Format: ADME, organism-based. More on the design: time < 6 hr, dose 5 mg/kg, route oral. Conditions: in vivo.
Data set [6] can be described thus: Cmax in rat at 5 mg/kg, po by LC-MS/MS. More on the design: dose 5 mg/kg, route oral. Format: ADME, organism-based. Conditions: in vivo.
Data set [7] can be described thus: Displacement of [3H]-dihydro-bevirimat from HIV1 Gag polyprotein virus like particles after 3 hrs. Set-up: species or system Human immunodeficiency virus 1. For orientation: Displacement assays read how much labelled ligand stays bound in the presence of the test substance.
Data set [8] in a line: Half life in rat liver microsomes at 0.5 uM by LC-MS/MS analysis in presence of NADPH. It is filed as ADME.
Data set [9] in a line: Solubility of the compound. It is filed as physicochemical.
Data set [10] is described as follows: Tmax in rat at 5 mg/kg, po by LC-MS/MS. Conditions: in vivo. Format: ADME, organism-based.
Data set [11] is described as follows: Clearance in cannula implanted rat at 1 mg/kg, iv by LC-MS/MS. Format: ADME, organism-based. Conditions: in vivo.
The nature of data set [12]: Volume of distribution in steady state in cannula implanted rat at 1 mg/kg, iv by LC-MS/MS. Format: ADME, organism-based. Conditions: in vivo, read-out: Vdss.
The subject of a further data set is HEK-293T. Description: Binding affinity to HIV1 Gag polyprotein assessed as protease-mediated p25-Spacer peptide 1 cleavage in HEK293T cells by measuring […] ratio at 2 uM by Western blot analysis. Format: cell-based. Conditions: Human immunodeficiency virus 1. (In general: In western blotting, separated proteins are transferred to a membrane and probed.)

A short description of data set [13]: Protein binding of the compound in plasma (unknown origin). It is filed as ADME, cell-free. Conditions: read-out: PB.

For the molecule `C=C(C)[C@@H]1CC[C@]2(C(=O)O)CC[C@]3(C)[C@H](CC[C@@H]4[C@@]5(C)CC=C(c6ccc(C(=O)O)cc6)C(C)(C)[C@@H]5CC[C@]43C)[C@@H]12`, the half-life at 0.5 µM in [1] and in data set [8] was 2 h each time. Further, the half-maximal effective concentration (EC50) (in general, the concentration that produces a half-maximal response) in data set [2] is 310 nM. Besides, the bioavailability (commonly dose-corrected exposure relative to a reference, in per cent) in data set [3] came out at 4%. Further, the CC50 (usually the concentration at which the toxic effect on the cells reaches its halfway point) in [4] came out at 27200 nM. Also, in data set [5], the exposure AUC(0-t) (usually the area under the concentration-time curve up to a stated or last time point) at 6 h is 5.72 µM·h. Besides, the peak level in [6] (Cmax) was 1310 nM. In [7], the half-inhibitory concentration (IC50) (usually the concentration needed to halve the response being measured) worked out at 27 nM. Moreover, the solubility result in data set [9] is “Insoluble”. Besides, in data set [10], the Tmax (usually the time from dosing to the highest level) was 4 h. Besides, the clearance (in general, a measure of how efficiently the substance is removed, as volume per time) in data set [11] is 1 mL/min/kg. The Vd in data set [12] came to 0.2 L/kg. The Ratio in the data set with HEK-293T is 1.6.
For `C=C(C)[C@@H]1CC[C@]2(C(=O)O)CC[C@]3(C)[C@H](CC[C@@H]4[C@@]5(C)CC[C@H](OC(=O)CC(C)(C)C(=O)O)C(C)(C)[C@@H]5CC[C@]43C)[C@@H]12` [BEVIRIMAT], the bioavailability in data set [3] was determined as 18%. In addition, the fraction unbound in data set [13] was less than 0.001. The concentration in data set [6] peaked (Cmax) at 2590 nM. The time to peak (Tmax) in data set [10] came to 0.3 h. Further, the clearance in [11] came out at 4 mL/min/kg.
